# Test results reported in patent US10414778B2, “Methods for treatment of resistant cancer” (New Mexico Tech University Research Park Corporation, priority 2016, dated 2019).
# Where two headings read alike, the source gives them in different places.
# Experiments:
# Format in all cases: cell-based, human
# HeLa cells = test: MTT in vitro growth inhibition assay, HeLa; conditions: two independent experiments
# Experimental: (§1) Human cancer cell lines were obtained from the American Type Culture Collection (ATCC, Manassas, Va., USA), the European Collection of Cell Culture (ECACC, Salisbury, UK), and the Deutsche Sammlung von Mikroorganismen und Zellkulturen (DSMZ, Braunschweig, Germany). Human cervical adenocarcinoma HeLa cells were cultured in DMEM supplemented with 10% fetal bovine serum (FBS). Human mammary carcinoma MCF-7 cells were cultured in RPMI supplemented with 10% FBS. The U87 cells (ATCC HTB-14) were cultured in DMEM culture medium, while the A549 cells (DSMZ ACC107) were cultured in RPMI culture medium supplemented with 10% heat-inactivated FBS. The GBM Hs683 (ATCC HTB-138) and the T98G (ATCC CRL-1690) cell lines were cultivated in DMEM supplemented with 10% FBS. The GBM U251 cells (ECACC code 09063001) were cultured in 10% MEM. The human uterine sarcoma MES-SA and MES-SA/Dx5 cells were cultured in RPMI-1640 medium supplemented with 10% FBS with MES SA/Dx5 maintained in the presence of 500 nM Doxorubicin (Sigma™). The U373 glioblastoma cells (ECACC 08061901) were cultured in RPMI culture medium supplemented with 10% heat-inactivated FBS.
# (§2) Spirodienones 4a-m were subjected to in vitro growth inhibition 3-(4,5-dimethylthiazol-2-yl)-2,5-diphenyltetrazolium bromide (MTT) assays against two cell lines, human HeLa cervical and MCF-7 breast adenocarcinomas.
# (§3) All compounds were dissolved in DMSO at a concentration of either 100 mM or 50 mM prior to cell treatment. The cells were trypsinized and seeded at various cell concentrations depending on the cell type. The cells were grown for 24 h to 72 h, treated with compounds at concentrations ranging from 0.001 to 100 μM, and incubated for 48, 72, or 96 h in 100 or 200 μL media depending on the cell line used. Cells treated with 0.1% DMSO were used as a negative control, and cells treated with 1 μM phenyl arsine oxide (PAO) were used as a positive control.
# (§4) To determine the activities of the compounds of the invention toward cancer cells, cell lines treated with different compounds were subjected to an in vitro MTT growth assay using human cervical cancer (HeLa) and human adenocarcinoma (MCF-7) cell lines. The MTT growth assay is a colorimetric assay that measures the metabolic activity of cells via reduction of 3-(4,5-dimethylthiazol-2-yl)-2,5-diphenyltetrazolium bromide (MTT). The reduction of MTT occurs in metabolically-active cells and is characterized by a purple color, which can be quantified via spectrophotometry. A higher absorbance reading indicates a metabolically-active cell, while a low absorbance reading indicates low metabolic activity due to, for example, inhibition of cellular proliferation or cell death.
# (§5) The values in TABLE 4 are the mean and standard deviation calculated from two independent experiments, which were performed in 4 replicates.
# MCF-7 cells = test: MTT in vitro growth inhibition assay, MCF-7; conditions: two independent experiments
# Experimental: as §1, §2, §3, §4, §5
# A549 cells = test: MTT growth inhibition, A549 NSCLC; conditions: 48 hours, up to 100 μM, FIGS. 4-7
# Experimental: as §1, §3
# Drug-resistant cell lines (i.e., glioma: Hs683, U373, U251, U87, T98G; lung cancer: A549, H2073; uterine carcinoma: MES-SA/Dx5) were complemented with drug-sensitive cell lines, H1993 lung cancer and MES-SA uterine cancer, which were used as controls. […] The GI50 values were calculated after 48-96 hours of treatment with the indicated compounds in replicate using the MTT growth assay.
# Compounds 5l and 5g were further tested using the A549 lung cancer cell line to determine a dose-response effect on apoptosis-resistant cells. (FIGS. 4-7). […] The MTT assay was performed in four replicates after 48 hours of treatment with the indicated compounds relative to a DMSO control.
# H2073 cells = test: MTT growth inhibition, H2073 drug-resistant NSCLC; conditions: Homo sapiens, NCI-H2073, MTT
# Experimental: NSCLC cell lines H1993 and H2073 were obtained from the Hamon Center for Therapeutic Oncology Research at UT Southwestern Medical Center and cultured in RPMI-1640 medium (Mediatech, VA, USA) supplemented with 5% heat-inactivated FBS (Mediatech™), 100 units/mL penicillin and 0.1 mg/mL streptomycin (Sigma™). All cell lines were cultured in T25 flasks, maintained, and grown at 37° C., 95% humidity, 5% CO2.
# as §3
# Spirodienone 4l was evaluated against patient-derived NSCLC cell line H1993 and its drug-resistant variant, H2073. The patient-derived NSCLC cell line […] was obtained from a regrown tumor at a primary site after a patient relapsed several months later.
# (§6) Due to their high potencies, compounds 5l and 5g were used to determine the effects of the compounds on drug-resistant tumor cells. Drug-resistant cell lines (i.e., glioma: Hs683, U373, U251, U87, T98G; lung cancer: A549, H2073; uterine carcinoma: MES-SA/Dx5) were complemented with drug-sensitive cell lines, H1993 lung cancer and MES-SA uterine cancer, which were used as controls. Bulbispermine and paclitaxel were also used as controls. The GI50 values were calculated after 48-96 hours of treatment with the indicated compounds in replicate using the MTT growth assay.
# Compound 5l was further tested to determine the effect of compounds of the invention on drug-resistant tumor cells. A patient-derived non-small cell lung cancer (NSCLC) line, H1993, and the drug-resistant variant of H1993, H2073, were used for testing. The H1993 cell line was obtained from a lymph node metastasis isolated from the patient prior to chemotherapy. The H2073 cell line was derived from a regrown tumor at the primary site after the patient had relapsed several months after administration of the chemotherapy regimen.
# MES-SA/Dx5 cells = test: MTT growth inhibition, MDR uterine sarcoma MES-SA/Dx5; conditions: Homo sapiens, MES-SA/Dx5, MTT
# Experimental: as §1, §3
# Compound 4l was also evaluated against the MDR uterine sarcoma cell line (MES-SA/Dx5 to evaluate whether the compounds of the invention were substrates for the MDR cancer efflux systems. The MES-SA/Dx5 cell line was established from the parent uterine sarcoma MES-SA, grown in the presence of increasing concentrations of doxorubicin and is known to be resistant to a number of P-gp substrates.
# The selection of doxorubicin-resistant cells (MES-SA/Dx5 cell line) was performed by splitting the cells and allowing the cells to adhere overnight. The next day, the cells were initially exposed to a DOX concentration of 100 nM, which represented the GI50 concentration. The cells were maintained at this DOX concentration until their growth rate reached that of the untreated cells. The DOX concentration was then increased in two-fold increments following the same growth criteria at each concentration to a final DOX concentration of 500 nM. Each new DOX concentration required approximately 2 passages to reach the growth rate of the untreated cells.
# as §6
# [1] = Homo sapiens, HeLa, Table 4, 48-hour treatment, mean and standard deviation, read-out: HeLa Cell Viability GI50
# [2] = Homo sapiens, MCF7, Table 4, 48-hour treatment, mean and standard deviation, read-out: MCF-7 Cell Viability GI50
# [3] = Homo sapiens, HeLa, 48 h treatment, ± SD, read-out: cell viability GI50, HeLa
# [4] = Homo sapiens, MCF7, MCF-7, 48 h treatment, ± SD, read-out: cell viability GI50, MCF-7
SMILES,GI50 (HeLa cells; [1]),GI50 (MCF-7 cells; [2]),GI50 (HeLa cells; [3]),GI50 (MCF-7 cells; [4]),other results
O=C1C=C[C@]23CC[N@](Cc4cc5c(cc42)OCCO5)[C@H]3C1 [Compound 5c],12.7 ± 2.3 µM,18.6 ± 0.8 µM,–,–,–
"COc1cc([C@@H]2c3cc4c(cc3[C@H](O)[C@H]3COC(=O)[C@H]23)OCO4)cc(OC)c1OC [PODO, podophyllotoxin, reference compound]",–,–,–,–,"anti-proliferative activity, dose-response (absorbance at 595 nm) (A549 cells): did not display such potent anti-proliferative activity"
O=C1C=CC2(C=C1)CCN(C(=O)C(F)(F)F)Cc1c2ccc2c1OCO2 [Compound 4d],–,–,> 100 µM,> 100 µM,–
O=C1C=CC2(C=C1)CCN(C(=O)C(F)(F)F)Cc1cc3c(cc12)OCO3 [Compound 4a],–,–,24 ± 2 µM,30 ± 2 µM,–
O=C1C=CC2(C=C1)CCN(C(=O)C(F)(F)F)Cc1cc(OCc3ccccc3)c(OCc3ccccc3)cc12 [Compound 4g],–,–,17 ± 1 µM,25 ± 2 µM,–
COc1cc2c(cc1OCc1ccccc1)CN(C(=O)C(F)(F)F)CCC21C=CC(=O)C=C1 [Compound 4e],–,–,38 ± 2 µM,48 ± 3 µM,–
O=C1C=C[C@]23CC[N@](Cc4cscc42)[C@H]3C1 [Compound 5k],25.4 ± 5.2 µM,43.6 ± 2.1 µM,–,–,–
COc1cc2c(cc1OC)C1(C=CC(=O)C=C1)CCN(C(=O)C(F)(F)F)C2 [Compound 4b],–,–,83 ± 5 µM,> 100 µM,–
O=C1C=C[C@]23CC[N@](Cc4c2ccc2c4OCO2)[C@H]3C1 [Compound 5d],60.5 ± 4.7 µM,72.5 ± 2.5 µM,–,–,–
O=C1C=C[C@]23CC[N@](Cc4cccc(OCc5ccccc5)c42)[C@H]3C1 [Compound 5i],7.37 ± 0.9 µM,11 µM,–,–,–
COc1cc2c(cc1OC)[C@@]13C=CC(=O)C[C@@H]1[N@](CC3)C2 [Compound 5b],63.5 ± 2.7 µM,> 100 µM,–,–,–
O=C1C=C[C@]23CC[N@](Cc4cc(OCc5ccccc5)ccc42)[C@H]3C1 [Compound 5h],7.9 ± 0.3 µM,14.4 ± 1 µM,–,–,–
"CC(=O)O[C@H]1C(=O)[C@@]2(C)[C@H]([C@H](OC(=O)c3ccccc3)[C@]3(O)C[C@H](OC(=O)[C@H](O)[C@@H](NC(=O)c4ccccc4)c4ccccc4)C(C)=C1C3(C)C)[C@]1(OC(C)=O)CO[C@@H]1C[C@@H]2O [paclitaxel, reference compound]",–,–,–,–,"anti-proliferative activity, dose-response (absorbance at 595 nm) (A549 cells): did not display such potent anti-proliferative activity; GI50 (H2073 cells; Table 3, 48-96 h treatment, read-out: GI50 in vitro values, lung cancer H2073): 2.4 µM; GI50 (H2073 cells; Table 5, 48-96 hours of treatment, read-out: GI50, Lung Cancer H2073): 2.4 µM; GI50 (MES-SA/Dx5 cells; Table 3, 48-96 h treatment, read-out: GI50 in vitro values, uterine sarcoma MES-SA/Dx5): 10 µM; GI50 (MES-SA/Dx5 cells; Table 5, 48-96 hours of treatment, read-out: GI50, Sarcoma MES-SA/Dx5): 10 µM"
COc1cc2c(cc1OCc1ccccc1)C1(C=CC(=O)C=C1)CCN(C(=O)C(F)(F)F)C2 [Compound 4f],–,–,34 ± 4 µM,34 ± 2 µM,–
O=C1C=CC2(C=C1)CCN(C(=O)C(F)(F)F)Cc1cc3c(cc12)OCCO3 [Compound 4c],–,–,21 ± 1 µM,34 ± 12 µM,–
O=C1C=CC2(C=C1)CCN(C(=O)C(F)(F)F)Cc1cccc(OCc3ccccc3)c12 [Compound 4i],–,–,11 ± 2 µM,14 ± 2 µM,–
O=C1C=CC2(C=C1)CCN(C(=O)C(F)(F)F)Cc1cc(OCc3ccccc3)ccc12 [Compound 4h],–,–,16 µM,40 ± 1 µM,–
"CO[C@@H]1C=C[C@@]23c4cc5c(cc4CN(C[C@@H]2O)[C@H]3C1)OCO5 [Haemanthamine, reference compound]",–,–,–,–,"GI50 (HeLa cells; Table 4, 48-hour treatment, mean and standard deviation, read-out: HeLa Cell Viability GI50): 1.8 ± 0.3 µM; GI50 (MCF-7 cells; Table 4, 48-hour treatment, mean and standard deviation, read-out: MCF-7 Cell Viability GI50): 2.1 ± 0.2 µM"
COc1cc2c(cc1OCc1ccccc1)[C@@]13C=CC(=O)C[C@@H]1[N@](CC3)C2 [Compound 5f],16.7 ± 1.8 µM,16.8 ± 0.2 µM,–,–,–
O=C1C=C[C@]23CC[N@](Cc4cc5c(cc42)OCO5)[C@H]3C1 [Compound 5a],25.4 ± 3 µM,23.9 ± 0.7 µM,–,–,–
COc1cc2c(cc1OCc1ccccc1)C[N@@]1CC[C@@]23C=CC(=O)C[C@H]13 [Compound 5e],11.8 ± 0.5 µM,14.5 ± 1 µM,–,–,–
